In patent publication US20230081529A1 (CBSBIOSCIENCE CO., LTD, priority 2020, published 2023):
Where two headings read alike, the source gives them in different places.

Assays:
[1] = system: hepatocellular carcinoma (HCC) patients; experiment: Sorafenib treatment of 73 HCC patients: tumor response (mRECIST) and Kaplan-Meier survival; type: in vivo, human
From the text: This study included 73 histological confirmed HCC patients. […] All tissues were obtained by needle biopsy. The patients were from Ajou Medical Center (AMC). The protocol of this study was approved by the Institutional Review Boards of Ajou Medical Center (AMC).
From a DCR perspective, patients with complete response (CR), partial response (PR) and stable disease (SD) were considered as responders whereas those with progressive disease (PD) were judged as non-responders.
Relationship between treatment response and clinicopathologic variables was evaluated using Chi square tests or Fishers exact tests. Gene expression data were tested for normality with the Shapiro-Wilk test. […] Receiver operating characteristic (ROC) curve analysis was used to determine accuracy of threshold values classifying tumor responders and non-responders using gene signature. Kaplan-Meier survival (KM) curves were calculated using death as end point in overall survival (OS) and using death and progression disease as end point in progression free survival (PFS). The difference in KM curves was examined by log-rank test and the difference in hazard ratio was examined by Cox regression analysis. […] Significance was set at P<0.05 (two-tailed). All statistics were performed in R version 3.3.3 (R Development Core Team, https:/www.r-project.org/).

[2] = system: hepatocellular carcinoma (HCC) patients; settings: systemic first-line therapy without predictive biomarkers; cited from earlier work
[3] = entire patients treated with sorafenib
[4] = predicted good responders (8-gene signature)
[5] = predicted poor responders (8-gene signature)

CNC(=O)c1cc(Oc2ccc(NC(=O)Nc3ccc(Cl)c(C(F)(F)F)c3)cc2)ccn1 [sorafenib]
Median overall survival [1, 3]: 11.3 months
Median progression-free survival [1, 3]: 2.9 months
Median time to progression [1, 3]: 2.9 months
disease control rate ([1]; entire patients, before selection with the 8-gene signature): 28.77%
Tumor response: Progressive disease, number of patients ([1]; non-responders (n = 52)): 52
Tumor response: Progressive disease, share of group ([1]; non-responders (n = 52)): 100.0%
number of non-responders (PD) ([1]; of 73 patients treated with sorafenib): 52
disease control rate ([1]; patients selected with the 8-gene signature): 85.71%
Median progression-free survival [1, 4]: 5.8 months
Median time to progression [1, 4]: 5.8 months
Median overall survival [1, 5]: 6.7 months
Median progression-free survival [1, 5]: 2.8 months
Median time to progression [1, 5]: 2.8 months
Tumor response: Complete response, number of patients ([1]; responders (n = 21)): 2
Tumor response: Complete response, share of group ([1]; responders (n = 21)): 9.5%
Tumor response: Partial response, number of patients ([1]; responders (n = 21)): 9
Tumor response: Partial response, share of group ([1]; responders (n = 21)): 42.9%
Tumor response: Stable disease, number of patients ([1]; responders (n = 21)): 10
Tumor response: Stable disease, share of group ([1]; responders (n = 21)): 47.6%
Median overall survival [2]: 10.7 months
objective response rates [2]: 2%
